Each structure is given as a SMILES string. pIC50: −log10 of the molar value. Where “and” joins values, the source holds several entries; their conditions need not be identical. Equal entries are not always repeated.

The subject of the assay is 435261-313-R-J1-PDC tumor spheroid viability. Nature of the assay: Anticancer human tumor 435261-313-R-J1-PDC patient-derived colon adenocarcinoma cell line growth inhibition [PI3K]. The following applies: spheroids with HUVEC and MSC; for viability, T/C: stronger effect = lower value. An outline of the steps:
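We assembled tumor spheroids that included a stromal compartment of HUVEC and MSCs, then exposed them to targeted agents alone and together with PI3K pathway inhibitors. Concentration series descended by half-log from clinically achievable Cmax levels. Viability served as the endpoint.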

Where [1] appears, read: curve of first compound, second compound 0.0316 µM.
Setting [2] is: curve of first compound, second compound 0.1 µM.
The mark [3] stands for this setting: curve of first compound, second compound 0.316 µM.
Setting [4] is: curve of first compound, second compound 1 µM.
Where [5] appears, read: second compound 0.0316 µM, first compound 0.0316 µM.
[6] abbreviates: second compound 0.0316 µM, first compound 0.1 µM.
Where [7] appears, read: second compound 0.0316 µM, first compound 0.316 µM.
Setting [8] is: second compound 0.0316 µM, first compound 1 µM.
The mark [9] stands for this setting: second compound 0.0316 µM, first compound 3.16 µM.
Setting [10] is: second compound 0.0316 µM, first compound 10 µM.
The mark [11] stands for this setting: second compound 0.1 µM, first compound 0.0316 µM.
[12] abbreviates: second compound 0.1 µM, first compound 0.1 µM.
[13] abbreviates: second compound 0.1 µM, first compound 0.316 µM.
Setting [14] is: second compound 0.1 µM, first compound 1 µM.
[15] abbreviates: second compound 0.1 µM, first compound 3.16 µM.
Where [16] appears, read: second compound 0.1 µM, first compound 10 µM.
The mark [17] stands for this setting: second compound 0.316 µM, first compound 0.0316 µM.
Setting [18] is: second compound 0.316 µM, first compound 0.1 µM.
[19] abbreviates: second compound 0.316 µM, first compound 0.316 µM.
[20] abbreviates: second compound 0.316 µM, first compound 1 µM.
Setting [21] is: second compound 0.316 µM, first compound 3.16 µM.
The mark [22] stands for this setting: second compound 0.316 µM, first compound 10 µM.
The mark [23] stands for this setting: second compound 1 µM, first compound 0.0316 µM.
[24] abbreviates: second compound 1 µM, first compound 0.1 µM.
Where [25] appears, read: second compound 1 µM, first compound 0.316 µM.
Where [26] appears, read: second compound 1 µM, first compound 1 µM.
The mark [27] stands for this setting: second compound 1 µM, first compound 3.16 µM.
[28] abbreviates: second compound 1 µM, first compound 10 µM.

In the case of `CC(C)NCC(C(=O)N1CCN(c2ncnc3c2C(C)CC3O)CC1)c1ccc(Cl)cc1` (configuration not stated) + CC(Nc1ccc2c(c1)OCCn1cc(N3C(=O)OCC3C(F)F)nc1-2)C(N)=O, the pIC50 by setting is: (curve of first compound, second compound 0.00316 µM) 5.29; (curve of first compound, second compound 0.01 µM) 5.43; under setting [1], 5.61; under setting [2], above 7.50; under setting [3], above 7.50; under setting [4], above 7.50. For the same molecule, the viability, T/C runs as follows: (second compound 0.00316 µM, first compound 0.0316 µM) 76.3%; (second compound 0.00316 µM, first compound 0.1 µM) 77.9%; (second compound 0.00316 µM, first compound 0.316 µM) 69.5%; (second compound 0.00316 µM, first compound 1 µM) 72.3%; (second compound 0.00316 µM, first compound 3.16 µM) 63.6%; (second compound 0.00316 µM, first compound 10 µM) 31.3%. The viability, T/C is, setting by setting: (second compound 0.01 µM, first compound 0.0316 µM) 88.2%; (second compound 0.01 µM, first compound 0.1 µM) 94.7%; (second compound 0.01 µM, first compound 0.316 µM) 73.6%; (second compound 0.01 µM, first compound 1 µM) 80.1%; (second compound 0.01 µM, first compound 3.16 µM) 54.7%; (second compound 0.01 µM, first compound 10 µM) 18.2%. For the same molecule, the viability, T/C under setting [5] is 62.3%; the viability, T/C under setting [6] was 56.3%; the viability, T/C under setting [7] is 50.5%; the viability, T/C under setting [8] was 60.8%; the viability, T/C under setting [9] was 47.3%; the viability, T/C under setting [10] is 13.3%. The viability, T/C was 48.6% under setting [11]; 28.7% under setting [12]; 34.8% under setting [13]; 31.8% under setting [14]; 24.7% under setting [15]; 12.6% under setting [16]. The viability, T/C is 21% under setting [17]; 21.4% under setting [18]; 18.4% under setting [19]; 18.7% under setting [20]; 19% under setting [21]; 10.6% under setting [22]. In addition, the viability, T/C was 18.1% under setting [23]; 15.9% under setting [24]; 13.8% under setting [25]; 18.4% under setting [26]; 17.1% under setting [27]; 10.8% under setting [28].
For the molecule `CCN1CCN(Cc2ccc(Nc3ncc(F)c(-c4cc(F)c5nc(C)n(C(C)C)c5c4)n3)nc2)CC1`, the viability, T/C was 78.8% and 104% and 106% (compound 0.00316 µM); 94.5% and 76.5% and 82.8% (compound 0.01 µM); 61.7% and 67.7% and 78.4% (compound 0.0316 µM); 48.9% and 58.6% and 55.6% (compound 0.1 µM); 47.7% and 44.3% and 50.4% (compound 0.316 µM); 40.8% and 56.3% and 51.8% (compound 1 µM).
For `Cn1nccc1Nc1nccc(-c2ccn(C(CO)c3ccc(Cl)c(F)c3)c(=O)c2)n1` (configuration not stated) + CC(Nc1ncnc2nc[nH]c12)c1cc2cccc(Cl)c2c(=O)n1-c1ccccc1, the pIC50 by setting is: under setting [1], 6.13; under setting [2], 6.38; under setting [3], 6.44; under setting [4], 6.37; (curve of first compound, second compound 3.16 µM) 6.60; (curve of first compound, second compound 10 µM) 7.16. Besides, the viability, T/C is, setting by setting: under setting [5], 83.5%; under setting [6], 64.9%; under setting [7], 84%; under setting [8], 40.1%; under setting [9], 28.7%; under setting [10], 24.9%. Also, the viability, T/C was 75.4% under setting [11]; 73.4% under setting [12]; 46.5% under setting [13]; 43.6% under setting [14]; 25.8% under setting [15]; 20.6% under setting [16]. Also, the viability, T/C runs as follows: under setting [17], 77.9%; under setting [18], 62.7%; under setting [19], 53.6%; under setting [20], 38%; under setting [21], 28.4%; under setting [22], 19.5%. The viability, T/C by setting is: under setting [23], 71.5%; under setting [24], 66.9%; under setting [25], 46.3%; under setting [26], 48.1%; under setting [27], 26%; under setting [28], 19.2%. Moreover, the viability, T/C (second compound 3.16 µM, first compound 0.0316 µM) was 77.1%; the viability, T/C (second compound 3.16 µM, first compound 0.1 µM) is 67.7%; the viability, T/C (second compound 3.16 µM, first compound 0.316 µM) is 42.1%; the viability, T/C (second compound 3.16 µM, first compound 1 µM) was 32.8%; the viability, T/C (second compound 3.16 µM, first compound 3.16 µM) was 23.5%; the viability, T/C (second compound 3.16 µM, first compound 10 µM) is 12.6%. The viability, T/C reads like this: (second compound 10 µM, first compound 0.0316 µM) 58.1%; (second compound 10 µM, first compound 0.1 µM) 46.8%; (second compound 10 µM, first compound 0.316 µM) 28.8%; (second compound 10 µM, first compound 1 µM) 18.3%; (second compound 10 µM, first compound 3.16 µM) 16.7%; (second compound 10 µM, first compound 10 µM) 9.7%.
As for `CC(=O)c1c(C)c2cnc(Nc3ccc(N4CCNCC4)cn3)nc2n(C2CCCC2)c1=O`, the viability, T/C was 69.4% and 92% and 91.1% (compound 0.000316 µM); 92.5% and 97.7% and 88.2% (compound 0.001 µM); 86.3% and 105% and 87% (compound 0.00316 µM); 105% and 93.1% and 75.4% (compound 0.01 µM); 99.9% and 90.4% and 103% (compound 0.0316 µM); 68.8% and 77.6% and 68.9% (compound 0.1 µM). Moreover, the pIC50 (curve of compound) is below 7.00.
Regarding `CC(Nc1ccc2c(c1)OCCn1cc(N3C(=O)OCC3C(F)F)nc1-2)C(N)=O` (configuration not stated), the viability, T/C reads like this: (compound 0.1 µM) 31.2% [middle of 7 runs]; (compound 0.316 µM) 23.1% [middle of 7 runs]; (compound 1 µM) 20.4% [middle of 7 runs].
Regarding `CNC(=O)c1ccc(N2C(=S)N(c3ccc(C#N)c(C(F)(F)F)c3)C(=O)C2(C)C)cc1F`, the viability, T/C (compound 3.16 µM) is 106% [middle of 4 runs]. Moreover, where the note is “curve of compound”, the pIC50 is below 5.00.

In general, pIC50 refers to the negative decadic logarithm of the IC50, by convention in mol/L. The viability, T/C is the ratio of treated to control.

The values above are taken from PubChem BioAssay AID1963976 (Molecular Pharmacology Branch, DTP, NCI, 2024).
